Measured values as given in ChEMBL document CHEMBL5036375, “Malaria Box-Inspired Discovery of N-Aminoalkyl-β-carboline-3-carboxamides, a Novel Orally Active Class of Antimalarials” (ACS Med Chem Lett, 2022).
Activity calls are given as the source filed them. No cut-off for these calls is given here.

Key:
Plasmodium falciparum [1] = experiment: Antimalarial activity against synchronized Plasmodium falciparum Dd2 (MRA-150) infected in human O-postive erythrocytes assessed as reduction in parasite growth after 72 hrs by SYBR green I staining based fluorescence assay; type: functional, organism-based
Plasmodium berghei [2] = experiment: Antimalarial activity against Plasmodium berghei ANKA expressing luciferase, PbGFP-Luccon infected in mouse assessed as reduction in parasitemia at 40 mg/kg, po measured after 4 days by luminescence assay; type: functional, organism-based; settings: time 4.0 day
Plasmodium falciparum [3] = experiment: Antimalarial activity against synchronized Plasmodium falciparum Dd2 (MRA-150) infected in human O-postive erythrocytes in presence of IPP assessed as reduction in parasite growth at 2.5 uM measured after 72 hrs by SYBR green I staining based fluorescence assay relative to control; type: functional; parameters: scale not given: the % may be the effect or the level left
Plasmodium falciparum [4] = experiment: Antimalarial activity against synchronized Plasmodium falciparum Dd2 (MRA-150) infected in human O-postive erythrocytes in presence of IPP assessed as reduction in parasite growth at 5 uM measured after 72 hrs by SYBR green I staining based fluorescence assay relative to control; type: functional; parameters: scale not given: the % may be the effect or the level left
[5] = Toxicity in mouse infected with Plasmodium berghei ANKA assessed as ruffled fur at 40 mg/kg, po measured after 4 days; type: organism-based; settings: in vivo, 96 h, time 4 day
[6] = Toxicity in mouse infected with Plasmodium berghei ANKA assessed as lethargy at 40 mg/kg, po measured after 4 days; type: organism-based; settings: in vivo, 96 h, time 4 day
[7] = Toxicity in mouse infected with Plasmodium berghei ANKA assessed as gait at 40 mg/kg, po measured after 4 days; type: organism-based; settings: in vivo, 96 h, time 4 day
[8] = target: Voltage-gated inwardly rectifying potassium channel KCNH2 (Homo sapiens, UniProt Q12809); experiment: Inhibition of human ERG expressed in HEK-293 cells by patch clamp method; type: cell-based, HEK293
Chain of Voltage-gated inwardly rectifying potassium channel KCNH2 (Q12809 whole entry): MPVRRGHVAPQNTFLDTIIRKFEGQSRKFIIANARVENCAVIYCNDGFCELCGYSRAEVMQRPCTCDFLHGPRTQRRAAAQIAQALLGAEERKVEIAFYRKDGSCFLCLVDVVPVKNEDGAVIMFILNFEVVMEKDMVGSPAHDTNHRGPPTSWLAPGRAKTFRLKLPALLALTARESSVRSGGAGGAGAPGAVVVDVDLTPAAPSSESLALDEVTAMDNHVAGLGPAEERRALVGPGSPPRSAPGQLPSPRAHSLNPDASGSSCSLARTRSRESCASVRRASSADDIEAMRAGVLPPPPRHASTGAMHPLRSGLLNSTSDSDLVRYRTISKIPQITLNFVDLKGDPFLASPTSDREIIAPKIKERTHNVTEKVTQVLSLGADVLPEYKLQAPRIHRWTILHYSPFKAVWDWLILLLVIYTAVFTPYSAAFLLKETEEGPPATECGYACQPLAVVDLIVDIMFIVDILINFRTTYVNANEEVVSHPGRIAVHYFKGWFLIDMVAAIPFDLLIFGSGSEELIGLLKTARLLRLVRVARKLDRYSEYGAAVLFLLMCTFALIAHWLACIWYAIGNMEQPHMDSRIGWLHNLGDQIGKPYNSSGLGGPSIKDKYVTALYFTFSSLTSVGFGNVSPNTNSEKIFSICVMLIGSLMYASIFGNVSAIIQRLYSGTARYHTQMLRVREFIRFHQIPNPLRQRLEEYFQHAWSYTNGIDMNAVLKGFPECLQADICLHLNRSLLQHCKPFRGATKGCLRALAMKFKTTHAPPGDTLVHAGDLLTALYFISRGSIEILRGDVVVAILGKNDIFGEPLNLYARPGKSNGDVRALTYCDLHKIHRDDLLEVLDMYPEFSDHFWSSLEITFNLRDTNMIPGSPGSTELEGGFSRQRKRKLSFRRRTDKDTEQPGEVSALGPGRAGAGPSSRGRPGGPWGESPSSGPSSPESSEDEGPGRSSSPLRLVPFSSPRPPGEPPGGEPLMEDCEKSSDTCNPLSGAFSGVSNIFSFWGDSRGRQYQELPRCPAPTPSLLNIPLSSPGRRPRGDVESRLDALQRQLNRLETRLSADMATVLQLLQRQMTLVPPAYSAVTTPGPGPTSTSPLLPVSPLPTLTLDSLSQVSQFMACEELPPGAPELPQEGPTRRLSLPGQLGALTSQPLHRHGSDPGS

[9] = Toxicity in mouse infected with Plasmodium berghei ANKA assessed as weight loss at 40 mg/kg, po measured after 4 days; type: organism-based; settings: in vivo, 96 h, time 4 day
Plasmodium falciparum [10] = experiment: Antimalarial activity against Plasmodium falciparum W2 infected in human O-postive erythrocytes measured after 72 hrs by SYBR green I staining based fluorescence assay; type: functional, organism-based; settings: W2, 72 h
[11] = Stability in CD-1 mouse plasma at 1 hour by LC-MS analysis a; type: ADME, cell-free; settings: read-out: Stability
Escherichia coli = experiment: Antibacterial activity against Escherichia coli (BL21) assessed as bacterial growth after 18 hrs by g a cell density meter; type: functional
Plasmodium falciparum [12] = experiment: Antimalarial activity against Plasmodium falciparum 3D7 (MRA-102) incubated for 72 hrs by Lactate dehydrogenase activity; type: functional, organism-based; settings: 3D7 MRA-102, 72 h
[13] = Half life in CD-1 mouse liver microsomes after 60 mins by LC-MS analysis; type: ADME, Microsome
[14] = Toxicity in mouse infected with Plasmodium berghei ANKA assessed as behavioural changes at 40 mg/kg, po measured after 4 days; type: organism-based; settings: in vivo, 96 h, time 4 day
Plasmodium falciparum [15] = experiment: Antimalarial activity against Plasmodium falciparum 3D7 (MRA-102) infected in human O-postive erythrocytes measured after 72 hrs by SYBR green I staining based fluorescence assay; type: functional, organism-based; settings: 3D7 MRA-102, 72 h
HEK293 = experiment: Cytotoxicity against human HEK293 cells by resazurin based cell viability assay; type: functional
[16] = Half life in rat plasma 40 mg/kg, po; type: ADME, organism-based
Plasmodium berghei [17] = experiment: Antimalarial activity against Plasmodium berghei ANKA expressing luciferase, PbGFP-Luccon infected in mouse assessed as reduction in parasitemia at 20 mg/kg, po measured after 4 days by luminescence assay; type: functional, organism-based; settings: time 4.0 day
Plasmodium falciparum [18] = experiment: Antimalarial activity against Plasmodium falciparum 4G infected in human O-postive erythrocytes measured after 72 hrs by SYBR green I staining based fluorescence assay; type: functional, organism-based
[19] = Volume of distribution in rat at 10 mg/kg , iv; type: ADME, organism-based; settings: in vivo
[20] = Oral bioavailability in rat at 40 mg/kg; type: ADME, organism-based; settings: in vivo
[21] = Cmax in rat at 40 mg/kg, po; type: ADME, organism-based; parameters: route oral, dose 40 mg/kg; settings: in vivo
Hepatocyte = experiment: Cytotoxicity against human hepatocytes measured after 96 hrs by DAPI staining based fluroscence assay; type: functional
[22] = Thermodynamic solubility of PBS at pH 7.4 by LC-MS analysis; type: physicochemical; settings: read-out: Therm_solubility
[23] = Lipophilicity, logD of the compound between 1-octanol and PBS pH 7.4 at 10 mM by LC-MS analysis; type: physicochemical; settings: 1-octanol/PBS
Plasmodium falciparum [24] = experiment: Antimalarial activity against KAE609 resistant Plasmodium falciparum Dd2 infected in human O-postive erythrocytes measured after 72 hrs by SYBR green I staining based fluorescence assay; type: functional, organism-based; settings: Dd2, 72 h
Plasmodium falciparum [25] = experiment: Antimalarial activity against Plasmodium falciparum 3D7A incubated for 48 hrs by [3H]-hypoxanthine incorporation assay; type: functional, organism-based; settings: 3D7

COC(=O)c1cc2c([nH]c3c(C)cccc32)c(-c2ccc(Cl)c(Cl)c2)n1
EC50 (Plasmodium falciparum [1]): > 10000 nM

Cc1cccc2c1[nH]c1c(-c3ccc(Cl)c(Cl)c3)nc(C(=O)NCCN(C)C)cc12
EC50 (Plasmodium falciparum [1]): 264 nM

CNCCNC(=O)c1cc2c([nH]c3c(C)cccc32)c(-c2ccc(Cl)cc2)n1
EC50 (Plasmodium falciparum [1]): 274 nM

CCCCNC(=O)c1cc2c([nH]c3c(C)cccc32)c(-c2ccc(Cl)c(Cl)c2)n1
EC50 (Plasmodium falciparum [1]): 1020 nM

CNCCNC(=O)[C@H]1Cc2c([nH]c3c(C)cccc23)[C@@H](c2ccc(Cl)cc2Cl)N1
EC50 (Plasmodium falciparum [1]): 1430 nM

CCN(CC)CCCC(C)Nc1ccnc2cc(Cl)ccc12 (configuration not stated)
Activity (Plasmodium berghei [2]): Active

CNCCNC(=O)c1cc2c([nH]c3ccccc32)c(-c2ccc(Cl)cc2)n1
EC50 (Plasmodium falciparum [1]): 496 nM

O=C(O)[C@@H]1Cc2c([nH]c3ccccc23)[C@@H](c2ccc(Cl)cc2Cl)N1
Activity (Plasmodium falciparum [3]): 100%

CNCCNC(=O)c1cc2c([nH]c3c(C)cccc32)c(-c2ccc(Cl)cc2Cl)n1
EC50 (Plasmodium falciparum [1]): 583 nM

CNCCNC(=O)c1cc2c([nH]c3c(C)cccc32)c(-c2ccccc2)n1
EC50 (Plasmodium falciparum [1]): 4000 nM

CNCCNC(=O)[C@H]1Cc2c([nH]c3c(C)cccc23)[C@H](c2ccc(Cl)cc2Cl)N1
EC50 (Plasmodium falciparum [1]): 3690 nM

CNCCNC(=O)[C@@H]1Cc2c([nH]c3c(C)cccc23)[C@@H](c2ccc(Cl)cc2Cl)N1
Activity (Plasmodium falciparum [4]): 50%
EC50 (Plasmodium falciparum [1]): 1950 nM

CNC(=O)c1cc2c([nH]c3c(C)cccc32)c(-c2ccc(Cl)c(Cl)c2)n1
EC50 (Plasmodium falciparum [1]): > 10000 nM

CNCCNC(=O)c1cc2c([nH]c3c(C)cccc32)c(-c2cccc(Cl)c2)n1
EC50 (Plasmodium falciparum [1]): 342 nM

Cc1cccc2c1[nH]c1c(-c3ccc(Cl)c(Cl)c3)nc(C(=O)O)cc12
EC50 (Plasmodium falciparum [1]): > 10000 nM

Cc1cccc2c1[nH]c1c(-c3ccc(Cl)c(Cl)c3)nc(C(=O)NCCO)cc12
EC50 (Plasmodium falciparum [1]): 3270 nM

CNCCNC(=O)c1cc2c([nH]c3c(C)cccc32)c(-c2ccc(Cl)c(Cl)c2)n1.Cl
Activity [5]: Non-Toxic
Activity [6]: Non-Toxic
Activity [7]: Non-Toxic
IC50 [8]: 510 nM
Activity [9]: Non-Toxic
EC50 (Plasmodium falciparum [10]): 100 nM
remaining at 1 h [11]: 100%
MIC (Escherichia coli): > 250 µM
IC50 (Plasmodium falciparum [12]): 117 nM
half-life [13]: 1.83 h
Activity [14]: Non-Toxic
EC50 (Plasmodium falciparum [15]): 53 nM
CC50 (HEK293): 32000 nM
Activity (Plasmodium falciparum [3]): 0%
half-life [16]: 8 h
Activity (Plasmodium berghei [17]): inactive
EC50 (Plasmodium falciparum [18]): 110 nM
Vd [19]: 21.8 L/kg
bioavailability [20]: 40%
Cmax [21]: 800 nM
CC50 (Hepatocyte): 8500 nM
solubility thermodynamic [22]: 9.5 µM
Activity (Plasmodium berghei [2]): Active
logD at 10000 µM [23]: 3.3
EC50 (Plasmodium falciparum [1]): 108 nM
EC50 (Plasmodium falciparum [24]): 101 nM
IC50 (Plasmodium falciparum [25]): 70 nM

CNCCNC(=O)c1cc2c([nH]c3ccccc32)c(-c2ccc(Cl)c(Cl)c2)n1
EC50 (Plasmodium falciparum [1]): 277 nM

Cc1cccc2c1[nH]c1c(-c3ccc(Cl)c(Cl)c3)nc(C(=O)NCCCN)cc12
EC50 (Plasmodium falciparum [1]): 726 nM

CNCCNC(=O)c1cc2c([nH]c3ccccc32)c(-c2cccc(Cl)c2)n1
EC50 (Plasmodium falciparum [1]): 641 nM

CNCCNC(=O)c1cc2c([nH]c3ccccc32)c(-c2ccccc2)n1
EC50 (Plasmodium falciparum [1]): 2500 nM

Cc1cccc2c1[nH]c1c(-c3ccc(Cl)c(Cl)c3)nc(C(=O)NCCN)cc12
EC50 (Plasmodium falciparum [1]): 263 nM

Cc1cccc2c1[nH]c1c(-c3ccc(Cl)c(Cl)c3)nc(C(=O)NCCCN(C)C)cc12
EC50 (Plasmodium falciparum [1]): 240 nM

CNCCNC(=O)[C@@H]1Cc2c([nH]c3c(C)cccc23)[C@H](c2ccc(Cl)cc2Cl)N1
EC50 (Plasmodium falciparum [1]): 1300 nM

CNCCCNC(=O)c1cc2c([nH]c3c(C)cccc32)c(-c2ccc(Cl)c(Cl)c2)n1
EC50 (Plasmodium falciparum [1]): 217 nM
